Source: patent publication EP4603105A1, “PHARMACEUTICAL COMPOSITION CONTAINING CYCLIC COMPOUND HAVING SELECTIVE KRAS INHIBITORY EFFECT AGAINST HRAS AND NRAS” (CHUGAI SEIYAKU KABUSHIKI KAISHA, priority 2022, dated 2024)
Read-outs that look alike come from different tables or passages of the source. *1 amine or outer side, *2 acyl side, *3 side chain or, on linkers, in order; H or OH if unused. Where a SMILES comes first, the peptide text is derived from it. Bridges are numbered along the chain shown (N, C = ends). [ ]: non-standard residue; d: D form. The star is where a group is joined. hPhe(3-Cl-4-CF3) = N[C@@H](CCc1ccc(C(F)(F)F)c(Cl)c1)C(=O)O; NPrPhe(4-CF3) = CCCN[C@@H](Cc1ccc(C(F)(F)F)cc1)C(=O)O; X41 = CCCN([C@@H](Cc1ccc(OC)cc1)C(=O)[*:2])[*:1]; X15 = CCCN([C@@H](Cc1ccccc1)C(=O)[*:2])[*:1]; NMeGly(cPent) = CN[C@H](C(=O)O)C1CCCC1; Hyp = O=C(O)[C@@H]1C[C@@H](O)CN1; NMeD = CN[C@@H](CC(=O)O)C(=O)O; NMeL = CN[C@@H](CC(C)C)C(=O)O; hPip = O=C(O)[C@@H]1CCCCCN1; Morpholide = C1CN(*)CCO1; Ac5c = NC1(C(=O)O)CCCC1; Aze = O=C(O)[C@@H]1CCN1; Ac4c = NC1(C(=O)O)CCC1; NEtG = CCNCC(=O)O; Sar = CNCC(=O)O

Experiments:
[1] = test system: human lung cancer strain NCI-H441; format: cell-based
Outline: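 Step one: dispense the test compound in serial DMSO dilutions. Step three: add the reagent and measure […].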

HRAS wild-type protein = HRAS wild-type protein (Homo sapiens, UniProt P01112); test: Binding to HRAS by surface plasmon resonance (SPR), KD and KD ratio to KRAS
HRAS wild-type protein, sequence (P01112 whole entry): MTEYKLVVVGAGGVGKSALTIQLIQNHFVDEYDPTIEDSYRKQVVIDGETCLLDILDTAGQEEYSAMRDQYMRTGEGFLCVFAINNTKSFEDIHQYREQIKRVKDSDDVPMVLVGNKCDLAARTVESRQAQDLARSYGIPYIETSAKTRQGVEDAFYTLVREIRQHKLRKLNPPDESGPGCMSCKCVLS
Outline: (§1)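 Running buffer contained 10 µM GDP and 10 mM MgCl2 to keep RAS in the GDP state, with 4% DMSO at pH 7.4. Compounds were flowed at 100 µL/min in 75 s steps of rising concentration over captured biotin-Avi RAS at 30°C. Sensorgrams were fitted 1:1 for KD.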

[2] = target: GDP-bound NRAS wild-type protein (Homo sapiens, UniProt P01111); test: Binding to NRAS by surface plasmon resonance (SPR), KD and KD ratio to KRAS
GDP-bound NRAS wild-type protein, sequence (P01111 whole entry): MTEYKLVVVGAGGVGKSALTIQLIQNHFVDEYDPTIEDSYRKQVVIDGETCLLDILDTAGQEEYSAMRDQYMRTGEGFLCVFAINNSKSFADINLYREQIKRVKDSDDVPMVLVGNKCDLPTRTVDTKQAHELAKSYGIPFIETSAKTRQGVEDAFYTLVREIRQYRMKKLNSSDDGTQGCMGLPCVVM
Outline: as §1

[3] = ratio of KD for HRAS wild-type protein to KD for KRAS
[4] = ratio of KD for GDP-bound NRAS wild-type protein to KD for KRAS

SMILES	IC50 [1] [nM]	HRAS /KRAS (HRAS wild-type protein; [3])	NRAS /KRAS [2, 4]	HRAS /KRAS (HRAS wild-type protein; ratio of KD value for HRAS wild-type protein to KD value for KRAS (SPR))	NRAS /KRAS ([2]; ratio of KD value for GDP-bound NRAS wild-type protein to KD value for KRAS (SPR))	IC50 ([1]; NCI-H441 cells, 4 days, CellTiter-Glo, read-out: NCl-H441 IC50) [nM]	HRAS /KRAS (HRAS wild-type protein; ratio of the KD value with respect to HRAS wild-type protein to the KD value with respect to KRAS)	NRAS /KRAS ([2]; ratio of the KD value with respect to GDP-bound NRAS wild-type protein to the KD value with respect to KRAS)
CCC[C@H]1C(=O)N[C@@H]([C@@H](C)CC)C(=O)N(C)CC(=O)N(C)[C@H]2C/C=C\CCN(C2=O)[C@@H](Cc2ccc(C)cc2)C(=O)N(C)CC(=O)N[C@@H](CCc2cc(F)c(C(F)F)c(F)c2)C(=O)N2C[C@H](OCC)C[C@H]2C(=O)NC2(CC(C)(C)C2)C(=O)N(C)[C@@H](C2CCCC2)C(=O)N(C)[C@H](C(=O)N(C)C)CC(=O)N1C [PP2782]	59.1	A (a compound having 10 or more and less than 20 is denoted as A)	A (a compound having 10 or more and less than 20 is denoted as A)					
CC[C@H](C)[C@@H]1NC(=O)[C@H](CC2CCCC2)N(C)C(=O)C[C@@H](C(=O)N(C)C)N(C)C(=O)[C@@H](C2CCCC2)N(C)C(=O)C2(CCC2)NC(=O)[C@@H]2[C@@H](OCC(F)F)CCN2C(=O)[C@@H](CCc2cc(F)c(C(F)(F)F)c(F)c2)NC(=O)CN(C)C(=O)[C@@H](Cc2ccc(C)cc2)N2CC/C=C\C[C@H](C2=O)N(C)C(=O)CN(C)C1=O [PP1536]	24.8			B (a compound having 3 or more and less than 10 is denoted as B)	A (a compound having 10 or more and less than 20 is denoted as A)			
C=CCCCC[C@H]1C(=O)N[C@@H]([C@@H](C)CC)C(=O)N(C)CC(=O)N(C)[C@H]2CCCCN(C2=O)[C@@H](Cc2ccc(C(F)(F)F)cc2)C(=O)N(C)CC(=O)N[C@@H](CCc2cc(F)c(C(F)(F)F)c(F)c2)C(=O)N2C[C@H](OCC)C[C@H]2C(=O)N[C@](C)(CC=C)C(=O)N(C)[C@@H](C2CCCC2)C(=O)N(C)[C@H](C(=O)N2CCOCC2)CC(=O)N1C [PP0877]	18.8	B (a compound having 3 or more and less than 10 is denoted as B)	C (A compound having a KD ratio of 0.1 or more and less than 3 is denoted as C)					
CCO[C@@H]1C[C@H]2C(=O)NC3(CC(C)(C)C3)C(=O)N(C)[C@@H](C3CCCC3)C(=O)N(C)[C@H](C(=O)N(C)C)CC(=O)N(C)[C@@H](CC(C)C)C(=O)N[C@@H]([C@@H](C)CC)C(=O)N(C)CC(=O)N(C)[C@H]3C/C=C\CCN(C3=O)[C@@H](Cc3ccc(C4CC4)cc3)C(=O)N(C)CC(=O)N[C@@H](CCc3ccc(C(F)(F)F)c(OC)c3)C(=O)N2C1 [PP2691]	3.5	A (a compound having 10 or more and less than 20 is denoted as A)	AA (a compound having 20 or more is denoted as AA)					
CCC[C@H]1C(=O)N[C@@H]([C@@H](C)CC)C(=O)N(C)CC(=O)N(C)[C@H]2C/C=C\CCN(C2=O)[C@@H](Cc2ccc(C(F)(F)F)cc2)C(=O)N(C)CC(=O)N[C@@H](CCc2cc(C)c(C(F)F)c(Cl)c2)C(=O)N2C[C@H](OCC)C[C@H]2C(=O)NC2(CC(C)(C)C2)C(=O)N(C)[C@@H](C2CCCC2)C(=O)N(C)[C@H](C(=O)N(C)C)CC(=O)N1C [PP2866]		A (a compound having 10 or more and less than 20 is denoted as A)	A (a compound having 10 or more and less than 20 is denoted as A)			39.6		
CC[C@H](C)[C@@H]1NC(=O)[C@H](COC)N(C)C(=O)C[C@@H](C(=O)N2CCOCC2)N(C)C(=O)[C@H](C2CCCC2)N(C)C(=O)C2(CCC2)NC(=O)[C@@H]2CCCN2C(=O)[C@H](CCc2cc(F)c(C(F)(F)F)c(F)c2)NC(=O)CN(C)C(=O)[C@H](Cc2ccc(C(F)(F)F)cc2)N2CCCCC[C@@H](C2=O)N(C)C(=O)[C@@H]2CCN2C1=O [PP0865]	767	B (a compound having 3 or more and less than 10 is denoted as B)	B (a compound having 3 or more and less than 10 is denoted as B)					
CCCN1C(=O)CN(C)C(=O)CN(CC)C(=O)[C@H]([C@@H](C)CC)NC(=O)[C@H](CC(C)C)N(C)C(=O)C[C@@H](C(=O)N(C)C)NC(=O)[C@H](C2CCCC2)N(C)C(=O)C2(CCCC2)NC(=O)[C@@H]2CCCN2C(=O)[C@H](CCc2ccc(C(F)(F)F)c(Cl)c2)NC(=O)CN(C)C(=O)[C@@H]1Cc1ccc(C(F)(F)F)cc1 [PP0367] ([NMeL]I[NEtG][Sar][NPrPhe(4-CF3)][Sar][hPhe(3-Cl-4-CF3)]P[Ac5c][NMeGly(cPent)]D-NMe2; lactam N-11)	99.1	B (a compound having 3 or more and less than 10 is denoted as B)	B (a compound having 3 or more and less than 10 is denoted as B)					
CCCN1C(=O)CN(C)C(=O)CN(CC)C(=O)[C@H]([C@@H](C)CC)NC(=O)[C@@H]2CCCCCN2C(=O)C[C@@H](C(=O)N2CCOCC2)N(C)C(=O)[C@H](C2CCCC2)N(C)C(=O)C2(CCCC2)NC(=O)[C@@H]2CCCN2C(=O)[C@H](CCc2ccc(C(F)(F)F)c(Cl)c2)NC(=O)CN(C)C(=O)[C@@H]1Cc1ccc(C(F)(F)F)cc1 [PP0289] ([hPip]I[NEtG][Sar][NPrPhe(4-CF3)][Sar][hPhe(3-Cl-4-CF3)]P[Ac5c][NMeGly(cPent)][NMeD]-Morpholide; lactam N-11)	76.4	B (a compound having 3 or more and less than 10 is denoted as B)	B (a compound having 3 or more and less than 10 is denoted as B)					
CCC(CC)[C@H]1C(=O)N(C)[C@H](C(=O)N(C)C)CC(=O)N(C)[C@@H](COC)C(=O)N[C@@H]([C@@H](C)CC)C(=O)N(C)CC(=O)N(C)[C@H]2C/C=C\CCN(C2=O)[C@@H](Cc2ccc(C(F)(F)F)cc2)C(=O)N(C)CC(=O)N[C@@H](CCc2cc(F)c(C(F)(F)F)c(F)c2)C(=O)N2CCCC[C@H]2C(=O)NC2(CC(C)(C)C2)C(=O)N1C [PP2916]	106	A (a compound having 10 or more and less than 20 is denoted as A)	A (a compound having 10 or more and less than 20 is denoted as A)					
CCCN1C(=O)CN(C)C(=O)CN(C)C(=O)[C@H]([C@@H](C)CC)NC(=O)[C@H](CC(C)C)N(C)C(=O)C[C@@H](C(=O)N2CCOCC2)N(C)C(=O)[C@H](C2CCCC2)N(C)C(=O)C2(CCCC2)NC(=O)[C@@H]2CCCN2C(=O)[C@H](CCc2ccc(C(F)(F)F)c(Cl)c2)NC(=O)CN(C)C(=O)[C@@H]1Cc1ccccc1 [PP0211] ([NMeL]I[Sar][Sar][X15][Sar][hPhe(3-Cl-4-CF3)]P[Ac5c][NMeGly(cPent)][NMeD]-Morpholide; lactam N-11)	10.8	C (A compound having a KD ratio of 0.1 or more and less than 3 is denoted as C)	B (a compound having 3 or more and less than 10 is denoted as B)					
CCC[C@H]1C(=O)N[C@@H]([C@@H](C)CC)C(=O)N(C)CC(=O)N(C)[C@H]2C/C=C\CCN(C2=O)[C@@H](Cc2ccc(C(F)(F)F)cc2)C(=O)N(C)CC(=O)N[C@@H](CCc2ccc(Cl)c(Cl)c2)C(=O)N2CC[C@H]2C(=O)NC2(CC(C)(C)C2)C(=O)N(C)[C@@H](C(CC)CC)C(=O)N(C)[C@H](C(=O)N(C)C)CC(=O)N1C [PP2921]	160	A (a compound having 10 or more and less than 20 is denoted as A)	AA (a compound having 20 or more is denoted as AA)					
CCCN1C(=O)[C@@H]2CCN2C(=O)CN(C)C(=O)[C@H]([C@@H](C)CC)NC(=O)[C@H](CC(C)C)N(C)C(=O)C[C@@H](C(=O)N(C)C)NC(=O)[C@H](C2CCCC2)N(C)C(=O)C2(CCC2)NC(=O)[C@@H]2C[C@@H](OCC)CN2C(=O)[C@H](CCc2ccc(C(F)(F)F)c(Cl)c2)NC(=O)CN(C)C(=O)[C@@H]1Cc1ccc(C(F)(F)F)cc1 [PP0390] ([NMeL]I[Sar][Aze][NPrPhe(4-CF3)][Sar][hPhe(3-Cl-4-CF3)][Hyp](Et)[Ac4c][NMeGly(cPent)]D-NMe2; lactam N-11)	7.6						B (a compound having 3 or more and less than 10 is denoted as B)	C (A compound having a KD ratio of 0.1 or more and less than 3 is denoted as C)
CCCN1C(=O)CN(C)C(=O)CN(C)C(=O)[C@H]([C@@H](C)CC)NC(=O)[C@H](CC(C)C)N(C)C(=O)C[C@@H](C(=O)N2CCOCC2)N(C)C(=O)[C@H](C2CCCC2)N(C)C(=O)C2(CCCC2)NC(=O)[C@@H]2CCCN2C(=O)[C@H](CCc2ccc(C(F)(F)F)c(Cl)c2)NC(=O)CN(C)C(=O)[C@@H]1Cc1ccc(OC)cc1 [PP0135] ([NMeL]I[Sar][Sar][X41][Sar][hPhe(3-Cl-4-CF3)]P[Ac5c][NMeGly(cPent)][NMeD]-Morpholide; lactam N-11)	26.1	C (A compound having a KD ratio of 0.1 or more and less than 3 is denoted as C)	B (a compound having 3 or more and less than 10 is denoted as B)					
CCC[C@H]1C(=O)N[C@@H]([C@@H](C)CC)C(=O)N(C2CC2)CC(=O)N(C)[C@H]2C/C=C\CCN(C2=O)[C@@H](Cc2ccc(C(F)(F)F)cc2)C(=O)N(C)CC(=O)N[C@@H](CCc2ccc(Cl)c(Cl)c2)C(=O)N2C[C@H](OCC)C[C@H]2C(=O)NC2(CC(C)(C)C2)C(=O)N(C)[C@@H](CC2CC2)C(=O)N(C)[C@H](C(=O)N(C)C)CC(=O)N1C [PP2817]	55.2	A (a compound having 10 or more and less than 20 is denoted as A)	A (a compound having 10 or more and less than 20 is denoted as A)					
